{"source": "PubChem BioAssay AID1259411", "about": "(Chemical Carcinogenesis Research Information System (CCRIS), 2018)", "test_system": "rodent carcinogenicity bioassays, tumor incidence", "experiment": "CCRIS carcinogenicity studies", "summary_of_the_method": "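Archive of carcinogenicity, mutagenicity, tumor promotion and tumor inhibition results drawn from journals, NCI reports and other sources, expert-reviewed; covers 1985-2011 and is no longer updated.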", "note": "Calls of active or inactive are those of the source. The rule behind the calls is not given here."}
{"smiles": "O=C(O)c1cc(Oc2ccc(C(F)(F)F)cc2Cl)ccc1[N+](=O)[O-]", "values": [{"measurement": "carcinogen call", "setting": "Species: MOUSE, Strain/Sex: B6C3F1/FEMALE, Route: ORAL, Dose: 0, 625, 1250, 2500 PPM IN DIET FOR 18 MO (STUDY DURATION: 18 MO), Dose: 0, 625, 1250, 2500 PPM IN DIET FOR 18 MO (STUDY DURATION: 18 MO), Tumor Site: Type of Lesion: LIVER: ADENOMA, CARCINOMA, STOMACH: PAPILLOMA", "result": "active; positive"}, {"measurement": "carcinogen call", "setting": "Species: MOUSE, Strain/Sex: B6C3F1/MALE, Route: ORAL, Dose: 0, 625, 1250, 2500 PPM IN DIET FOR 18 MO (STUDY DURATION: 18 MO), Dose: 0, 625, 1250, 2500 PPM IN DIET FOR 18 MO (STUDY DURATION: 18 MO), Tumor Site: Type of Lesion: LIVER: ADENOMA, CARCINOMA, STOMACH: PAPILLOMA", "result": "active; positive"}, {"measurement": "carcinogen call", "setting": "Species: MOUSE, Strain/Sex: CR-CD-1/FEMALE, Route: ORAL, Dose: 0, 7.5, 4.5, 270 PPM IN DIET FOR 24 MO (STUDY DURATION: 24 MO), Dose: 0, 7.5, 4.5, 270 PPM IN DIET FOR 24 MO (STUDY DURATION: 24 MO), Tumor Site: Type of Lesion: LIVER: ADENOMA OR CARCINOMA", "result": "active; positive"}, {"measurement": "carcinogen call", "setting": "Species: MOUSE, Strain/Sex: CR-CD-1/MALE, Route: ORAL, Dose: 0, 7.5, 4.5, 270 PPM IN DIET FOR 24 MO (STUDY DURATION: 24 MO), Dose: 0, 7.5, 4.5, 270 PPM IN DIET FOR 24 MO (STUDY DURATION: 24 MO), Tumor Site: Type of Lesion: LIVER: ADENOMA OR CARCINOMA", "result": "active; positive"}, {"measurement": "carcinogen call", "setting": "Species: RAT, Strain/Sex: F344/MALE, FEMALE, Route: ORAL, Dose: 0, 25, 150, 500, 2500, 5000 PPM IN DIET FOR 2 YR (STUDY DURATION: 2 YR), Dose: 0, 25, 150, 500, 2500, 5000 PPM IN DIET FOR 2 YR (STUDY DURATION: 2 YR)", "result": "inactive; negative"}]}
{"smiles": "O=C(O)/C=C/c1ccc(O)c(O)c1", "values": [{"measurement": "carcinogen call", "setting": "Species: MOUSE, Strain/Sex: B6C3F1/FEMALE, Route: ORAL, Dose: 0, 2% IN DIET FOR 96 WK (STUDY DURATION: 96 WK), Tumor Site: Type of Lesion: KIDNEY (TUBULAR CELL): ADENOMA", "result": "active; positive"}, {"measurement": "carcinogen call", "setting": "Species: MOUSE, Strain/Sex: B6C3F1/FEMALE, Route: ORAL, Dose: 0, 2% IN POWDERED BASAL DIET FOR 96 WK (STUDY DURATION: 96 WK)", "result": "inactive; negative"}, {"measurement": "carcinogen call", "setting": "Species: MOUSE, Strain/Sex: B6C3F1/MALE, Route: ORAL, Dose: 0, 2% IN DIET FOR 96 WK (STUDY DURATION: 96 WK), Tumor Site: Type of Lesion: LUNG (ALVEOLAR CELL): ADENOMA OR ADENOCARCINOMA", "result": "active; positive"}, {"measurement": "carcinogen call", "setting": "Species: MOUSE, Strain/Sex: B6C3F1/MALE, Route: ORAL, Dose: 0, 2% IN POWDERED BASAL DIET FOR 96 WK (STUDY DURATION: 96 WK)", "result": "inactive; negative"}, {"measurement": "carcinogen call", "setting": "Species: RAT, Strain/Sex: F344/FEMALE, Route: ORAL, Dose: 0, 2% IN DIET FOR 104 WK (STUDY DURATION: 104 WK), Tumor Site: Type of Lesion: FORESTOMACH: PAPILLOMA, CARCINOMA", "result": "active; positive"}, {"measurement": "carcinogen call", "setting": "Species: RAT, Strain/Sex: F344/FEMALE, Route: ORAL, Dose: 0, 2% IN DIET FOR 104 WK (STUDY DURATION: 104 WK), Tumor Site: Type of Lesion: FORESTOMACH: SQUAMOUS CELL CARCINOMA", "result": "active; positive"}, {"measurement": "carcinogen call", "setting": "Species: RAT, Strain/Sex: F344/FEMALE, Route: ORAL, Dose: 0, 2% IN POWDERED BASAL DIET FOR 104 WK (STUDY DURATION: 104 WK), Tumor Site: Type of Lesion: FORESTOMACH: PAPILLOMA, SQUAMOUS CELL CARCINOMA", "result": "active; positive"}, {"measurement": "carcinogen call", "setting": "Species: RAT, Strain/Sex: F344/MALE, Route: ORAL, Dose: 0, 0.4% IN DIET FOR DURATION OF STUDY (STUDY DURATION: 104 WK), Tumor Site: Type of Lesion: FORESTOMACH: PAPILLOMA", "result": "active; positive"}, {"measurement": "carcinogen call", "setting": "Species: RAT, Strain/Sex: F344/MALE, Route: ORAL, Dose: 0, 2% IN DIET FOR 104 WK (STUDY DURATION: 104 WK), Tumor Site: Type of Lesion: FORESTOMACH: PAPILLOMA, CARCINOMA", "result": "active; positive"}, {"measurement": "carcinogen call", "setting": "Species: RAT, Strain/Sex: F344/MALE, Route: ORAL, Dose: 0, 2% IN DIET FOR 104 WK (STUDY DURATION: 104 WK), Tumor Site: Type of Lesion: FORESTOMACH: SQUAMOUS CELL CARCINOMA", "result": "active; positive"}, {"measurement": "carcinogen call", "setting": "Species: RAT, Strain/Sex: F344/MALE, Route: ORAL, Dose: 0, 2% IN POWDERED BASAL DIET FOR 104 WK (STUDY DURATION: 104 WK), Tumor Site: Type of Lesion: FORESTOMACH: PAPILLOMA, SQUAMOUS CELL CARCINOMA", "result": "active; positive"}, {"measurement": "carcinogen call", "setting": "Species: RAT, Strain/Sex: F344/MALE, Route: ORAL, Dose: 2% IN THE DIET FOR 104 WK (STUDY DURATION: 104 WK), Tumor Site: Type of Lesion: FORESTOMACH: PAPILLOMA, SQUAMOUS CELL CARCINOMA", "result": "active; positive"}]}
{"smiles": "CCCCCCCCN(C)N=O", "values": [{"measurement": "carcinogen call", "setting": "Species: HAMSTER, Strain/Sex: SYRIAN/FEMALE, Route: GAVAGE, Dose: 0, 7.4 MG/KG 1/WK FOR 40 WK (TOTAL DOSE: 0; 2.1 MMOL) (STUDY DURATION: LIFETIME), Dose: 0, 7.4 MG/KG 1/WK FOR 40 WK (TOTAL DOSE: 0; 2.1 MMOL) (STUDY DURATION: LIFETIME), Tumor Site: Type of Lesion: LIVER: HEPATOCELLULAR ADENOMA, LUNG: ALVEOLAR/BRONCHIAL ADENOMA, NASAL MUCOSA: ADENOMA, URINARY BLADDER: SARCOMA, UNDIFF, Tumor Site: Type of Lesion: LIVER: HEPATOCELLULAR ADENOMA, LUNG: ALVEOLAR/BRONCHIAL ADENOMA, NASAL MUCOSA: ADENOMA, URINARY BLADDER: SARCOMA, UNDIFF", "result": "active; positive"}, {"measurement": "carcinogen call", "setting": "Species: HAMSTER, Strain/Sex: SYRIAN/MALE, Route: GAVAGE, Dose: 0, 7.4 MG/KG 1/WK FOR 40 WK (TOTAL DOSE: 0; 2.1 MMOL) (STUDY DURATION: LIFETIME), Dose: 0, 7.4 MG/KG 1/WK FOR 40 WK (TOTAL DOSE: 0; 2.1 MMOL) (STUDY DURATION: LIFETIME), Tumor Site: Type of Lesion: LIVER: HEPATOCELLULAR ADENOMA, CHOLANGIOMA, HEMANGIOSARCOMA, LUNG: ALVEOLAR/ BRONCHIAL ADENOMA, NASAL MUCOSA: ADENOMA, U, Tumor Site: Type of Lesion: LIVER: HEPATOCELLULAR ADENOMA, CHOLANGIOMA, HEMANGIOSARCOMA, LUNG: ALVEOLAR/ BRONCHIAL ADENOMA, NASAL MUCOSA: ADENOMA, U", "result": "active; positive"}, {"measurement": "carcinogen call", "setting": "Species: RAT, Strain/Sex: F344/MALE, Route: GAVAGE, Dose: 0, 93 MG/ML IN CORN OIL 2/WK FOR 30 WK, STUDY DURATION: 50 WK, Dose: 0, 93 MG/ML IN CORN OIL 2/WK FOR 30 WK, STUDY DURATION: 50 WK, Tumor Site: Type of Lesion: LUNG: ADENOCARCINOMA, ADENOMA, NASAL CAVITY: CARCINOMA, LIVER: HEPATOCELLULAR TUMOR, BLADDER, Tumor Site: Type of Lesion: LUNG: ADENOCARCINOMA, ADENOMA, NASAL CAVITY: CARCINOMA, LIVER: HEPATOCELLULAR TUMOR, BLADDER", "result": "active; positive"}]}
{"smiles": "CCNc1nc(Cl)nc(NC(C)C)n1", "values": [{"measurement": "carcinogen call", "setting": "Species: RAT, Strain/Sex: F344/FEMALE, Route: ORAL, Dose: 0, 10, 70, 200, 400 PPM IN DIET FOR 24 MO (STUDY DURATION: 24 MO), Dose: 0, 10, 70, 200, 400 PPM IN DIET FOR 24 MO (STUDY DURATION: 24 MO)", "result": "inactive; negative"}, {"measurement": "carcinogen call", "setting": "Species: RAT, Strain/Sex: F344/LATI/FEMALE, Route: ORAL, Dose: 0, 500, 1000 PPM TECHNICAL GRADE IN FEED FOR 8 WK THEN 0, 375, 750 PPM FOR LIFE SPAN (STUDY DURATION: LIFE SPAN), Dose: 0, 500, 1000 PPM TECHNICAL GRADE IN FEED FOR 8 WK THEN 0, 375, 750 PPM FOR LIFE SPAN (STUDY DURATION: LIFE SPAN), Tumor Site: Type of Lesion: UTERUS: ADENOCARCINOMA, HEMATOPOIETIC SYSTEM: LEUKEMIA OR LYMPHOMA", "result": "active; positive"}, {"measurement": "carcinogen call", "setting": "Species: RAT, Strain/Sex: F344/LATI/MALE, Route: ORAL, Dose: 0, 500, 1000 PPM TECHNICAL GRADE IN FEED FOR 8 WK THEN 0, 375, 750 PPM FOR LIFE SPAN (STUDY DURATION: LIFE SPAN), Dose: 0, 500, 1000 PPM TECHNICAL GRADE IN FEED FOR 8 WK THEN 0, 375, 750 PPM FOR LIFE SPAN (STUDY DURATION: LIFE SPAN), Tumor Site: Type of Lesion: MAMMARY GLAND: BENIGN TUMOR", "result": "active; positive"}, {"measurement": "carcinogen call", "setting": "Species: RAT, Strain/Sex: SPRAGUE-DAWLEY/FEMALE, Route: ORAL, Dose: 0, 70, 400 PPM IN DIET FOR 24 MO (STUDY DURATION: 24 MO), Dose: 0, 70, 400 PPM IN DIET FOR 24 MO (STUDY DURATION: 24 MO)", "result": "inactive; negative"}]}
